Experimental data: the NIST ThermoML archive (doi:10.1016/j.jct.2010.02.009)
“And” between values parts separate entries of the source, which are not always exact repeats. Equal entries are not always repeated.

Tests used:
[1] = heat capacity at constant pressure per volume; xn = mol fraction of the nth substance listed; details: 101 kPa, Liquid, Large sample (1 g) DSC, x1 = 0.497
[2] = refractive index (other wavelength) (dimensionless); xn = mol fraction of the nth substance listed; details: 101 kPa, Liquid, Wavelength=632.8 nm, Standard Abbe refractometry

N#Cc1ccccc1 [benzonitrile] + CCCCCCCCC
[1]
Details | heat capacity
278.51 K | 1795700 J/K/m3
279.06 K | 1803600 J/K/m3
279.55 K | 1808700 J/K/m3
280 K | 1811600 J/K/m3
280.41 K | 1816400 J/K/m3
280.77 K | 1824500 J/K/m3
281.11 K | 1829200 J/K/m3
281.41 K | 1830500 J/K/m3
281.68 K | 1829700 J/K/m3
281.93 K | 1835700 J/K/m3
282.15 K | 1841800 J/K/m3
282.35 K | 1845300 J/K/m3
282.53 K | 1847600 J/K/m3
282.7 K | 1849700 J/K/m3
282.85 K | 1856600 J/K/m3
282.98 K | 1859600 J/K/m3
283.1 K | 1862200 J/K/m3
283.21 K | 1866700 J/K/m3
283.31 K | 1869700 J/K/m3
283.4 K | 1868700 J/K/m3
283.49 K | 1873100 J/K/m3
283.56 K | 1868300 J/K/m3
283.69 K | 1880300 J/K/m3
283.88 K | 1913600 J/K/m3
283.95 K | 1908800 J/K/m3
284.03 K | 1934300 J/K/m3
284.09 K | 1950500 J/K/m3
284.11 K | 1960300 J/K/m3
284.12 K | 1970200 J/K/m3
284.13 K | 1977600 J/K/m3
284.15 K | 1985800 J/K/m3
284.16 K | 1998500 J/K/m3
284.18 K | 2005300 J/K/m3
284.19 K | 2006000 J/K/m3
284.2 K | 2015800 J/K/m3
284.21 K | 2022500 J/K/m3
284.22 K | 2037100 J/K/m3
284.23 K | 2046300 J/K/m3
284.24 K | 2060600 J/K/m3
284.25 K | 2071500 J/K/m3
284.26 K | 2047100 J/K/m3 [middle of 6 runs]
284.27 K | 1937800 J/K/m3 [middle of 5 runs]
284.28 K | 1815400 J/K/m3 and 1840700 J/K/m3
284.29 K | 1794400 J/K/m3
284.31 K | 1776700 J/K/m3
284.33 K | 1765400 J/K/m3
284.36 K | 1750800 J/K/m3
284.42 K | 1731200 J/K/m3
284.5 K | 1715800 J/K/m3
284.61 K | 1703600 J/K/m3
284.69 K | 1698600 J/K/m3
284.79 K | 1693000 J/K/m3
284.9 K | 1688700 J/K/m3
284.97 K | 1686600 J/K/m3
285.12 K | 1680400 J/K/m3
285.21 K | 1677900 J/K/m3
285.31 K | 1676100 J/K/m3
285.43 K | 1674300 J/K/m3
285.55 K | 1671100 J/K/m3
285.68 K | 1668100 J/K/m3
285.83 K | 1666100 J/K/m3
286 K | 1665000 J/K/m3
286.18 K | 1662900 J/K/m3
286.38 K | 1659800 J/K/m3
286.6 K | 1659100 J/K/m3
286.85 K | 1655600 J/K/m3
287.12 K | 1655500 J/K/m3
287.42 K | 1652700 J/K/m3
287.75 K | 1650500 J/K/m3
288.12 K | 1649500 J/K/m3
288.53 K | 1647700 J/K/m3
288.97 K | 1645800 J/K/m3
289.51 K | 1644500 J/K/m3
290.01 K | 1643400 J/K/m3
290.61 K | 1641800 J/K/m3
291.29 K | 1641000 J/K/m3
292.03 K | 1639400 J/K/m3
292.42 K | 1639400 J/K/m3
292.84 K | 1638700 J/K/m3
293.28 K | 1638100 J/K/m3
293.74 K | 1637800 J/K/m3
294.24 K | 1637400 J/K/m3
294.74 K | 1636900 J/K/m3
295.28 K | 1636500 J/K/m3
295.85 K | 1636400 J/K/m3
296.45 K | 1635800 J/K/m3
297.07 K | 1635800 J/K/m3
297.73 K | 1635500 J/K/m3
298.41 K | 1635100 J/K/m3
299.14 K | 1635100 J/K/m3
299.89 K | 1634900 J/K/m3
300.7 K | 1634900 J/K/m3
301.55 K | 1634800 J/K/m3
302.43 K | 1635000 J/K/m3
303.36 K | 1635100 J/K/m3
304.34 K | 1635200 J/K/m3
305.38 K | 1635400 J/K/m3
306.45 K | 1635600 J/K/m3
307.59 K | 1635800 J/K/m3
308.79 K | 1636100 J/K/m3
310.05 K | 1636600 J/K/m3
311.36 K | 1637200 J/K/m3
312.75 K | 1637800 J/K/m3
314.12 K | 1638500 J/K/m3

[2]
Details | refractive index
278.24 K, x1 = 1 | 1.5324
279.25 K, x1 = 1 | 1.5319
281.33 K, x1 = 1 | 1.5308
282.96 K, x1 = 1 | 1.5301
284.3 K, x1 = 1 | 1.5294
285.4 K, x1 = 0.0945 | 1.4145
285.4 K, x1 = 0.2042 | 1.4234
285.4 K, x1 = 0.2947 | 1.4313
285.4 K, x1 = 0.3866 | 1.4402
285.4 K, x1 = 0.4969 | 1.452
285.4 K, x1 = 0.5967 | 1.4642
285.4 K, x1 = 0.6844 | 1.4759
285.4 K, x1 = 0.7992 | 1.4932
285.4 K, x1 = 0.865 | 1.504
285.43 K, x1 = 1 | 1.5288
